Reference: ChEMBL document CHEMBL1201862, “PubChem BioAssay data set” (2004)
Calls of active or inactive are those of the source.

Experiments:
[1] = molecular target: UDP-galactopyranose mutase (Mycobacterium tuberculosis, UniProt P9WIQ1); assay: Inhibitors of Mycobacterium tuberculosis UDP-galactopyranose mutase (UGM) enzyme Measured in Biochemical System Using Plate Reader - 2105-02_Inhibitor_Dose_CherryPick_Activity. [Related pubchem assays (depositor defined):AID504439]
[2] = molecular target: Cytochrome P450 2C19 (Homo sapiens, UniProt P33261); assay: Cytochrome panel assay with activity outcomes. Panel member name: p450-cyp2c19 Compounds with AC50 equal or less than 10 uM are considered active; type: functional; details: read-out: AC50
Sequence of Cytochrome P450 2C19 (P33261 whole entry): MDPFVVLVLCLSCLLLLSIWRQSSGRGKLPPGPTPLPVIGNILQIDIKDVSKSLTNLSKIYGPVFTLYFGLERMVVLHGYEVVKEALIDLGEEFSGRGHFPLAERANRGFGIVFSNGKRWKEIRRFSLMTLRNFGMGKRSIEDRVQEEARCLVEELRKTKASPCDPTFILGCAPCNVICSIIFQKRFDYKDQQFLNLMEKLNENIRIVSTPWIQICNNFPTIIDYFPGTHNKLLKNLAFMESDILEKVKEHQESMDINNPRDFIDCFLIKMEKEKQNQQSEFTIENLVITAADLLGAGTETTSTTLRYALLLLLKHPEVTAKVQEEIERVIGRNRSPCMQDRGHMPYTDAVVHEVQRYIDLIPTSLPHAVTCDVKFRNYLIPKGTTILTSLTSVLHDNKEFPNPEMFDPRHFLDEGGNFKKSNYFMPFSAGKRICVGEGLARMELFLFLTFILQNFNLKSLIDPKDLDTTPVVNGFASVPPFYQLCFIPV

[3] = molecular target: T1, Cytochrome P450 2D6 (Homo sapiens, UniProt P10635);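 note: CYP2D6 member of a cytochrome P450 panel assay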
T1 sequence (P10635 whole entry): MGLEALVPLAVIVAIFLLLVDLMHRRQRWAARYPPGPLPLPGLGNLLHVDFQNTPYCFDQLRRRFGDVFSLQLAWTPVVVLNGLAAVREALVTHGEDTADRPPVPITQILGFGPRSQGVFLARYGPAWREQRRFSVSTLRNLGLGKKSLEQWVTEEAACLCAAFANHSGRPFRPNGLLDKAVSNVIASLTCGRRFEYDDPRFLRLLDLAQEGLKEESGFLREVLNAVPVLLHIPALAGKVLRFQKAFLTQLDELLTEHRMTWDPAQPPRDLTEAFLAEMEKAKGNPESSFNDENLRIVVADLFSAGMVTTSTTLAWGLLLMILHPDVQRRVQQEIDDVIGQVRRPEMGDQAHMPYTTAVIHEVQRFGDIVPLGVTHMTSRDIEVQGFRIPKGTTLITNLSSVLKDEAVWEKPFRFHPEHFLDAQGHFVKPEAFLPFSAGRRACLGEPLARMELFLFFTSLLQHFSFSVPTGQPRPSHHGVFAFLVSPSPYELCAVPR

[4] = molecular target: T2, Cytochrome P450 3A4 (Homo sapiens, UniProt P08684);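 note: CYP3A4 tested as one member of a cytochrome P450 panel screen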
T2 sequence (P08684 whole entry): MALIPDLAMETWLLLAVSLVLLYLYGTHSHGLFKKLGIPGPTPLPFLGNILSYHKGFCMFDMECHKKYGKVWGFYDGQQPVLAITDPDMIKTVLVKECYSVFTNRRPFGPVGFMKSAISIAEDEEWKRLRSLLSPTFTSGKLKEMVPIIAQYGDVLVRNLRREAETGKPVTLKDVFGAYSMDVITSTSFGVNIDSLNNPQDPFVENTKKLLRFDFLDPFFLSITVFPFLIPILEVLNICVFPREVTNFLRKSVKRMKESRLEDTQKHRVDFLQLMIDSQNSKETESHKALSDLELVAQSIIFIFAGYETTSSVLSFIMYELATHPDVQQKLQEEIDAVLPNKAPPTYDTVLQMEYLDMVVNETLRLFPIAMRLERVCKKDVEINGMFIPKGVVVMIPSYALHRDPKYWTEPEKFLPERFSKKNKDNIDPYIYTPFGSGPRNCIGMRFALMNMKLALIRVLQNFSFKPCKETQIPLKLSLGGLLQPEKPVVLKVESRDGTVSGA

[5] = molecular target: T3, Cytochrome P450 1A2 (Homo sapiens, UniProt P05177);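 note: PubChem cytochrome P450 panel assay, CYP1A2 panel member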
T3 sequence (P05177 whole entry): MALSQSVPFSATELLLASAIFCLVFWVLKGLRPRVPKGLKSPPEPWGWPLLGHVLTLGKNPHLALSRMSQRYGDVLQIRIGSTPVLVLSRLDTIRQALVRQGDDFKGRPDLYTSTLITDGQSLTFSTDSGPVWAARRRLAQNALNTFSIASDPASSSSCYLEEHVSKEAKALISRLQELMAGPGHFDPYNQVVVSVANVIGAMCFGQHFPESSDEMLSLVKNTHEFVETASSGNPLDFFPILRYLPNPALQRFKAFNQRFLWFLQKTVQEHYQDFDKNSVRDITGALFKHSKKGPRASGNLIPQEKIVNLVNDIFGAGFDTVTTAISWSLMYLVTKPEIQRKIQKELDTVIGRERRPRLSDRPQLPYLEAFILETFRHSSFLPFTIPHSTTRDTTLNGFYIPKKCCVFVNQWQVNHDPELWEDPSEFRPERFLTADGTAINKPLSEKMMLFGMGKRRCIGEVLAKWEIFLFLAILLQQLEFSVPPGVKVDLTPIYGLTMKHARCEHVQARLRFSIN

[6] = molecular target: T4, Bcl-2-like protein 10 (Homo sapiens, UniProt Q9HD36); assay: Bcl-B/TR3 peptide binding disruption – biochemical, fluorescence polarization, FITC-TR3 peptide, selectivity assay for Bfl-1 inhibitor project, primary screen (AID 748);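 note: fluorescence polarization from a fluorescein-labelled TR3 peptide binding purified Bcl-B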
T4 sequence (Q9HD36 whole entry): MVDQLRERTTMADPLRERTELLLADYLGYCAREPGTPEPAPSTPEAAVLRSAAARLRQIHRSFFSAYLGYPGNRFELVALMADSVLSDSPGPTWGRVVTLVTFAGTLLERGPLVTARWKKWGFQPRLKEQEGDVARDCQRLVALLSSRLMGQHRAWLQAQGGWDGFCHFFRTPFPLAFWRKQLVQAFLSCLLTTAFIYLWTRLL

[7] = molecular target: T5, Protein Tat (Human immunodeficiency virus type 1 group M subtype B (isolate HXB2)(HIV-1), UniProt P04608); type: functional;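 note: tat binding to TAR RNA read out by fluorescence polarization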
T5 sequence (P04608 whole entry): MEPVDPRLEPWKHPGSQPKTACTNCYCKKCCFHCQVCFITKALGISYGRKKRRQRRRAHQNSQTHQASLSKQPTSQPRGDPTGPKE

[8] = molecular target: T6, Dual specificity protein phosphatase 6 (Rattus norvegicus, UniProt Q64346); type: functional
T6 sequence (Q64346 whole entry): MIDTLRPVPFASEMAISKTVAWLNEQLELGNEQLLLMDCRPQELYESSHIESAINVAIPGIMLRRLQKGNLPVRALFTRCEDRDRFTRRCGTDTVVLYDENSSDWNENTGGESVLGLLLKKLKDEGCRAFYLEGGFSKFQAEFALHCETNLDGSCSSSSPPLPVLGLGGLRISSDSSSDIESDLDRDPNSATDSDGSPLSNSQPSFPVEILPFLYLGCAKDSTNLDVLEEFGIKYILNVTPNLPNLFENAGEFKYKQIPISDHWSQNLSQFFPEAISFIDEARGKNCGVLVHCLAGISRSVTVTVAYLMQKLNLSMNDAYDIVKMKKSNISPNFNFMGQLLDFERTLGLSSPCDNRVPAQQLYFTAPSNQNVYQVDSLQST

[9] = molecular target: T6, Dual specificity protein phosphatase 6; assay: inhibition of rat DUSP6 enzyme activity – biochemical, in vitro, primary screen (AID 425)
[10] = molecular target: Induced myeloid leukemia cell differentiation protein Mcl-1 (Homo sapiens, UniProt Q07820); assay: blockers of MCL1 binding to BIM peptide – biochemical, fluorescence polarization, BIM-BH3 peptide, 1536-well, dose response (AID 2217)
Sequence of Induced myeloid leukemia cell differentiation protein Mcl-1 (Q07820 whole entry): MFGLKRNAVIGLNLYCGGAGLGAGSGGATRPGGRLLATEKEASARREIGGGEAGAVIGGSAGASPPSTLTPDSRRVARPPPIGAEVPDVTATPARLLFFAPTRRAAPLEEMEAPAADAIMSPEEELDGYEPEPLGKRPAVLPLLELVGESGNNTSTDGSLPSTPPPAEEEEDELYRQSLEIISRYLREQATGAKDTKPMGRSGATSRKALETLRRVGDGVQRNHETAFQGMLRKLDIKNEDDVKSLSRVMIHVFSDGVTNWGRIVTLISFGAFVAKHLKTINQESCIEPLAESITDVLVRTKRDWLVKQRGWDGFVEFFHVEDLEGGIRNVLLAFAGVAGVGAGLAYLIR

[11] = molecular target: T7, Tyrosine-protein phosphatase non-receptor type 7 (Homo sapiens, UniProt P35236); assay: redox-active compounds inhibiting HePTP phosphatase – biochemical, fluorescence, mechanism study (AID 2068); type: functional
T7 sequence (P35236 whole entry): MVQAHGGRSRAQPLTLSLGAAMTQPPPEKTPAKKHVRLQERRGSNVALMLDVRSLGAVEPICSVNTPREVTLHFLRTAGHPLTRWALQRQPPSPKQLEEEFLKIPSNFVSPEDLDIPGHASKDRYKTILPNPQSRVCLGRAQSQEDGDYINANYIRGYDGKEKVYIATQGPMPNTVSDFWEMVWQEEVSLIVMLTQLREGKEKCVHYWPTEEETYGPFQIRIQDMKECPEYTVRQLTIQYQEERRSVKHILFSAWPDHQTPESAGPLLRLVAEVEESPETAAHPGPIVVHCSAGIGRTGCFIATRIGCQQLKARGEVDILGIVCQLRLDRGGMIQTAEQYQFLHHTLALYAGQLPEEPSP

[12] = molecular target: Dual specificity protein phosphatase 3 (Homo sapiens, UniProt P51452); assay: SAR VHR1 Fluorescent Assay for In Vitro dose response studies. [Related pubchem assays (depositor defined):AID1654, AID1661, AID1878, AID1992, AID2004, AID2070, AID2085]; type: functional
Sequence of Dual specificity protein phosphatase 3 (P51452 whole entry): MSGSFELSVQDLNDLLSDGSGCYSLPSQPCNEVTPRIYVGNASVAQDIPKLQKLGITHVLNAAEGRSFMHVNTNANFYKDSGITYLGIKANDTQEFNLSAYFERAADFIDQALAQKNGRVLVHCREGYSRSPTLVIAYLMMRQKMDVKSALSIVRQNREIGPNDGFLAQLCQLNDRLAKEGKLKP

[13] = molecular target: Bcl-2-like protein 1 (Homo sapiens, UniProt Q07817); assay: blockers of BCLXL peptide binding – biochemical, fluorescence polarization, 1536-well, selectivity assay for MCL1 inhibitor project, dose response (AID 2218)
Sequence of Bcl-2-like protein 1 (Q07817 whole entry): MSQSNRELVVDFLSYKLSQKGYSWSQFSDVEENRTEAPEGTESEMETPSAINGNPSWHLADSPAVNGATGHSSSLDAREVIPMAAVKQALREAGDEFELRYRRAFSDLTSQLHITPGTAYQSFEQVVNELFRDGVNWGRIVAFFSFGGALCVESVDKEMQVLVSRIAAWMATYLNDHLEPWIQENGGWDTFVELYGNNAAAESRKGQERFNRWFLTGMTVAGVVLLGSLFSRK

[14] = molecular target: T7, Tyrosine-protein phosphatase non-receptor type 7; type: functional
[15] = molecular target: Glyceraldehyde-3-phosphate dehydrogenase (Homo sapiens, UniProt P04406)
Sequence of Glyceraldehyde-3-phosphate dehydrogenase (P04406 whole entry): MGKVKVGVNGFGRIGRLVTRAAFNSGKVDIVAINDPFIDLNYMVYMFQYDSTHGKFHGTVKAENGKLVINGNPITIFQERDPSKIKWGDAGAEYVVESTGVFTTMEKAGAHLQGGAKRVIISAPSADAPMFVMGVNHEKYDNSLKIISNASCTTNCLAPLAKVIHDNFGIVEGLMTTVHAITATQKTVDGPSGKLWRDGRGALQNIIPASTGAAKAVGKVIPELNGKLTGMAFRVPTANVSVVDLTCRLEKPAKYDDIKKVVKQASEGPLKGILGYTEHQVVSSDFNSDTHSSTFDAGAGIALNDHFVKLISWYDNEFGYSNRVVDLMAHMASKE

[16] = molecular target: T6, Dual specificity protein phosphatase 6
[17] = molecular target: T8, Protein RecA (Mycobacterium tuberculosis, UniProt P9WHJ3); assay: Fluorescence Cell-Free Homogeneous Dose Retest to Identify Inhibitors of RecA-Intein Splicing Activity. [Related pubchem assays (depositor defined):AID2097, AID2223, AID489010, AID492950]; type: functional
T8 sequence (P9WHJ3 whole entry): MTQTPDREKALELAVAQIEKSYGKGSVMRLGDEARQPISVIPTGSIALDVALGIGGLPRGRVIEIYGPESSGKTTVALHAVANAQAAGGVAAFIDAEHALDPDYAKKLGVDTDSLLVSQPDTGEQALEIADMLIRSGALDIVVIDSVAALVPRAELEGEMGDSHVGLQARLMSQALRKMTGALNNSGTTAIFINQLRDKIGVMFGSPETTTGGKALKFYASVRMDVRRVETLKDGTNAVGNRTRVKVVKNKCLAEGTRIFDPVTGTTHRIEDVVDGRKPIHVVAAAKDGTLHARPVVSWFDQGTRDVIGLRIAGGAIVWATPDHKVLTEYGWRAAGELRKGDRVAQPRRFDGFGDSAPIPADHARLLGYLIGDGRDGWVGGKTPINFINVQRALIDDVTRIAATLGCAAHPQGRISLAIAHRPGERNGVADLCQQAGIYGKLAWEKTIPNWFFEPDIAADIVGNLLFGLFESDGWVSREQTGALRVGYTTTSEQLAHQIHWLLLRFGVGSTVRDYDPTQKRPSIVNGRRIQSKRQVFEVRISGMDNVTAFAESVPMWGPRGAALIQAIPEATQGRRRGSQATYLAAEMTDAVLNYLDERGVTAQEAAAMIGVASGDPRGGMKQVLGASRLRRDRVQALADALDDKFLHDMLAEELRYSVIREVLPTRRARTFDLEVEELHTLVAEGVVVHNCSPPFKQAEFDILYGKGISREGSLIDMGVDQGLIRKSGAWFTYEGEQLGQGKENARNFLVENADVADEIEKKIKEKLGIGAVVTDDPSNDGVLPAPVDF

[18] = molecular target: Keap1/Nrf2 (Homo sapiens, UniProt Q14145); assay: disruptors of Keap1 binding to Nrf2 peptide – biochemical, fluorescence polarization, cherry-picked samples, dose response (AID 588683)
Sequence of Keap1/Nrf2 (Q16236 whole entry): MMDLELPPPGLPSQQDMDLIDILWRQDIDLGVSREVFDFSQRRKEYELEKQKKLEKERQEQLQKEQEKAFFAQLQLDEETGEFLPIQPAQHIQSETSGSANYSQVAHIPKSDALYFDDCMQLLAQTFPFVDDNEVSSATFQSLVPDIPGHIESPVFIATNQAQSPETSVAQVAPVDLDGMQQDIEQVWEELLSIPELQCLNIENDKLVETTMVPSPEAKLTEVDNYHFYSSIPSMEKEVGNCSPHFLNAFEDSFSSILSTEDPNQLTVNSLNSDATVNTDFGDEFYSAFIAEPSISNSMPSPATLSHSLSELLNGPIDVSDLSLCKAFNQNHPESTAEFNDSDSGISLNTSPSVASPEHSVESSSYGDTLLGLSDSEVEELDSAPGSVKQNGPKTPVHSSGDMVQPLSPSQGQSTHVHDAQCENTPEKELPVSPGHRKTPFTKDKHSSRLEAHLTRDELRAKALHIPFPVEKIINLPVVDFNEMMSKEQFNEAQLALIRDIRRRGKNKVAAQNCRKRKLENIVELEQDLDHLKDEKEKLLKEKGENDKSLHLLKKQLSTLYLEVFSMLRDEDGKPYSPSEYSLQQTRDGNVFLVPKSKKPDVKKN
Sequence of Keap1/Nrf2 (Q14145 whole entry): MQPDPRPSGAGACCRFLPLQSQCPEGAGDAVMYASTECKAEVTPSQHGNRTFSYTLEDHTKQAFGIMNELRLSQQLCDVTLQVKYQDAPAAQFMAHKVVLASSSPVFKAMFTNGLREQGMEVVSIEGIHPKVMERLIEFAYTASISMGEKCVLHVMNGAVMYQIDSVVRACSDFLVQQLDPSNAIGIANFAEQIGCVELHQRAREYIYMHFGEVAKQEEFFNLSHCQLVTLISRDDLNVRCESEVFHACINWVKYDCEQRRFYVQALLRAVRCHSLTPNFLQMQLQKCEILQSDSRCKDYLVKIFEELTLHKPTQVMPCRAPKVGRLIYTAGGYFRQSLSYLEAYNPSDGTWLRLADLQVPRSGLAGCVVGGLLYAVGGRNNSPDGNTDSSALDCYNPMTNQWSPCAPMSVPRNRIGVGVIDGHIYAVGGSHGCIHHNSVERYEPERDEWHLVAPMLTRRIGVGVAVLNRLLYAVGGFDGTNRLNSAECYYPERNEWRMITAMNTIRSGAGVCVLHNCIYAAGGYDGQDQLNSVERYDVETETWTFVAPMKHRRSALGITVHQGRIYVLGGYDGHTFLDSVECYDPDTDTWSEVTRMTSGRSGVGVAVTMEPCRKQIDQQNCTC

[19] = molecular target: T9, Replicative DNA helicase DnaB (Mycobacterium tuberculosis, UniProt P9WMR3); assay: DnaB intein splicing inhibitors, dose response, biochemical, cell-free fluorescence (AID 449749); type: functional
T9 sequence (P9WMR3 whole entry): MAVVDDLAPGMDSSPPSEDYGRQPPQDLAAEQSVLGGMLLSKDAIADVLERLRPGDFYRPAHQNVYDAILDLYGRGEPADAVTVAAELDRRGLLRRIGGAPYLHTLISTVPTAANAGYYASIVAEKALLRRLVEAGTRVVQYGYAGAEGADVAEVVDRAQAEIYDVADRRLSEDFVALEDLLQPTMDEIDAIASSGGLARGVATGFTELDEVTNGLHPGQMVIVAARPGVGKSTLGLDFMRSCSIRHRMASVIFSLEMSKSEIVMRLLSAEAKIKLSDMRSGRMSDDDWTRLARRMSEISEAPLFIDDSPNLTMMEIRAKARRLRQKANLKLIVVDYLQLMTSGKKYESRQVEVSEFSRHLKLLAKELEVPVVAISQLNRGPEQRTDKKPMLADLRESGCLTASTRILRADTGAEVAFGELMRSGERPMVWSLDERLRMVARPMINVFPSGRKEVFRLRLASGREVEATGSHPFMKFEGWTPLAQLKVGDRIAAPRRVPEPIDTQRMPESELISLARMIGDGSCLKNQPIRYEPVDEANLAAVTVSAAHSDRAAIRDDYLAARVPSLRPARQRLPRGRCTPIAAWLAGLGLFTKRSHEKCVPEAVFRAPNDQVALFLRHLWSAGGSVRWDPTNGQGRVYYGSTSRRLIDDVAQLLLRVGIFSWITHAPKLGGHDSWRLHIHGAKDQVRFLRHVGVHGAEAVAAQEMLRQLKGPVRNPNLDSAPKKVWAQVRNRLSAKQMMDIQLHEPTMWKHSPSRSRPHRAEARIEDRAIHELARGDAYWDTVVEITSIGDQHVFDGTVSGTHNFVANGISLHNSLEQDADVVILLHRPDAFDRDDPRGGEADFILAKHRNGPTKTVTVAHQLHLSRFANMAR

[20] = system: INS1; assay: INS-1E survival protection against cytokine death – cell-based, luminescence, retest, dose response (AID 449756); type: functional; details: Rattus norvegicus;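 note: cell death triggered by IL-1 beta plus TNF-alpha plus IFN-gamma mixture; protective hits raise ATP signal compared with cytokine alone wells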
[21] = molecular target: G-protein coupled receptor 55 (Homo sapiens, UniProt Q9Y2T6); assay: blockers of GPR55 signalling, imaged – imaging, image-based, counter-screen for GPR35 antagonist project, SAR follow-up (AID 2397); type: functional
Sequence of G-protein coupled receptor 55 (Q9Y2T6 whole entry): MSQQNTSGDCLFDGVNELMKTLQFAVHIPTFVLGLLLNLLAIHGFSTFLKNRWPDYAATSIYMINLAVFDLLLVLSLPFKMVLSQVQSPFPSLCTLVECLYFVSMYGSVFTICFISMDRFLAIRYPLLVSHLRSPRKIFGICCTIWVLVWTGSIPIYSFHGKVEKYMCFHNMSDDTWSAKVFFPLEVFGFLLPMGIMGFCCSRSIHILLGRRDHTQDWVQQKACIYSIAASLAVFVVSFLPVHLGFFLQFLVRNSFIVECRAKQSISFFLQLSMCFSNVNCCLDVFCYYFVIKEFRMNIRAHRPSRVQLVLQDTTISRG

[22] = Intein inhibitors as potential Tuberculosis drugs, a cytotoxicity screen. [Related pubchem assays (depositor defined):AID2221, AID2223, AID434968, AID435010, AID449749, AID449750, AID489010]; type: functional
[23] = molecular target: T10, Protein skinhead-1 (Caenorhabditis elegans, UniProt P34707); type: functional
T10 sequence (P34707 whole entry): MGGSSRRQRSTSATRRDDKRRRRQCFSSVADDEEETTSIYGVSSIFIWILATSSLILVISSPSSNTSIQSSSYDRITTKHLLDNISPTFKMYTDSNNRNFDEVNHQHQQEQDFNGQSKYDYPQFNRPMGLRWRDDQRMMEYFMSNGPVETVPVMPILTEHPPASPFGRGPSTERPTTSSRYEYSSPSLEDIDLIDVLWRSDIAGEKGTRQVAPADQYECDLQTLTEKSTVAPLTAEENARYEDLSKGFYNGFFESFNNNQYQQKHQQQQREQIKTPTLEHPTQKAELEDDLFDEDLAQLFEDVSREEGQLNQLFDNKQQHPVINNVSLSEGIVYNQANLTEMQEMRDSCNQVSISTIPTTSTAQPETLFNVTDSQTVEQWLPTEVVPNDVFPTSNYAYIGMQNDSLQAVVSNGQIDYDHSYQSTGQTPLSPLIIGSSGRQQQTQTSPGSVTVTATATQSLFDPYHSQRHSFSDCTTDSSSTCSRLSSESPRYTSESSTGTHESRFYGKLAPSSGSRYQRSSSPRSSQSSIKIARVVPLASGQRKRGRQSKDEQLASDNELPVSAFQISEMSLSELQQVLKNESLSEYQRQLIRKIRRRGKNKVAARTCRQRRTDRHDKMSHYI

[24] = molecular target: T2, Cytochrome P450 3A4; remark: listed apart in the source
[25] = molecular target: Cytochrome P450 2C9 (Homo sapiens, UniProt P11712)
Sequence of Cytochrome P450 2C9 (P11712 whole entry): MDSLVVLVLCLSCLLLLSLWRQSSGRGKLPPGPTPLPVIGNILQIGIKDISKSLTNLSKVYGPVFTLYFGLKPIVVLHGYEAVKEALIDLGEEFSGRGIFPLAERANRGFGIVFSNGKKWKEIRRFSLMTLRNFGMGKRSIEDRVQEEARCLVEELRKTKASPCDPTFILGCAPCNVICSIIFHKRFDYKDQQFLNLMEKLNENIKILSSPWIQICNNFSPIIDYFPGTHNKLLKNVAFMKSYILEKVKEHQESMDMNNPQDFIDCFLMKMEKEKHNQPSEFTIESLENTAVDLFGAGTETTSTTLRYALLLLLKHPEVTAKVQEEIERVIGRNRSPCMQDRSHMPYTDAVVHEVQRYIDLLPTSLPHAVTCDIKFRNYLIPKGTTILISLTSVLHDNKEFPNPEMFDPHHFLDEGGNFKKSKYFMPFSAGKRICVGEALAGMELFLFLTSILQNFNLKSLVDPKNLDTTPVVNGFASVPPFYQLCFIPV

[26] = molecular target: T1, Cytochrome P450 2D6; remark: listed apart in the source
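Throughout, for CC50: cells exposed to compound for 72 hours before luminescence readout.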

Structure (SMILES): COCCNC(=O)Cn1cc(C=C2C(=O)NC(=O)NC2=O)c2ccccc21
- AC50 [1]: 46.3 µM (active)

Structure (SMILES): CC(C)(C)c1ccc(-c2nnc(SCC(=O)c3ccc4c(c3)OCCO4)o2)cc1
- AC50 [2]: 3.98 µM (inconclusive)
- AC50 [3]: inconclusive
- AC50 [4]: 39.8 µM (inconclusive)
- AC50 [5]: 2.24 µM (inconclusive)

Structure (SMILES): c1ccc(CSc2nnc(-c3ccco3)c(-c3ccco3)n2)cc1
- IC50 [6]: 5.55 µM (active)
- IC50 [7]: 4.04 µM (inconclusive)
- IC50 [8]: 24.2 µM (active)
- IC50 [9]: > 10 µM (not active)
- IC50 [10]: 2.92 µM (active)
- IC50 [11]: 284 nM (active)
- IC50 [12]: 7.06 µM (active)
- IC50 [13]: > 109 µM (not active)
- IC50 [14]: 13.3 µM (active)
- IC50 [15]: > 100 µM (not active)
- IC50 [16]: 23.9 µM (active)

Structure (SMILES): Cc1ccc(S(=O)(=O)Nc2ccc(O)c3ccccc23)c(C)c1
- EC50 [17]: 70.2 nM (active)
- AC50 [18]: > 52 µM (inactive)
- AC50 [19]: 132 nM (active)
- AC50 [20]: 5.61 µM (active)

Structure (SMILES): O=C(CCCN1C(=O)/C(=C/c2cccs2)SC1=S)Nc1ccc(O)cc1
- IC50 [21]: 30.5 µM (inactive)
- EC50 [17]: 3250 nM (active)
- AC50 [19]: 2110 nM (active)
- CC50 [22]: 28.5 µM (active)
- IC50 [23]: > 100 µM (inactive)

Structure (SMILES): COC(=O)C1Cc2c([nH]c3ccccc23)CN1 (stereo not drawn)
- AC50 [24]: inconclusive
- AC50 [25]: 25.1 µM (inconclusive)
- AC50 [26]: 14.1 µM (inconclusive)
